Experimental data taken from patent US20210029993A1, “SPATIAL INHIBITORS, DETERRENTS AND REPELLENTS FOR MOSQUITOES AND MIDGES” (BEDOUKIAN RESEARCH, INC., priority 2005, published 2021).

Tests used:
Type in all cases: in vivo
[1] = test system: female mosquitoes (Aedes aegypti); experiment: Mosquitoes flying test (Plexiglas module, mosquitoes flying within the apparatus); conditions: for Flying Relative To Control: control = 1, higher = more inhibitor activity; for spatial inhibitor activity for mosquitoes (flying tests, FIGS. 2 and 4), in words: flying relative to control
Method: The test was conducted at 0900-2100 hours in a walk-in incubator (26° C., 63-80% RH) illuminated by fluorescent lights. Mosquitoes were tested in a two-piece Plexiglas module designed to assess their response to feeding deterrents. The bottom piece of the module was 40×7×4-cm hollow platform supporting six circular wells (diameter=3.8 cm, depth=6 mm). Water (40° C.) flowed through the central cavity of the platform at a rate of 215 ml/min. The top piece of the module consisted of six 4.5×4.0×5.0 cm chambers, the floors of which were fitted with a sliding door positioned over a circular opening 3.5 cm in diameter. Mosquitoes were introduced through an aperture 1 cm in diameter on the front wall of the chambers. For each test, five female mosquitoes (Aedes aegypti) were aspirated into each of five chambers of the top module piece and the apertures were plugged with corks wrapped in plastic film. The wells on the bottom piece of the module were filled with 7 ml of 10% sucrose solution containing ATP (2.9 mg/ml). To each well, 75 μl of green dye (McCormick Food, Hunt Valley, Md.) were added so that those mosquitoes imbibing the sugar solution could be identified when crushed at the end of the tests. Each membrane received 50 ul of acetone or experimental compound solution, applied to 9.6 cm^2 circular area on 0.1 mm-thick membranes made of nylon mesh in a silicone matrix. The membranes were then placed over each well in contact with the sugar solution.
The circular openings on the floor of each chamber of the top piece of the module were aligned with each membrane-covered well of the bottom piece. The sliding floors of the chambers were then opened allowing mosquitoes access to the membranes. The number of mosquitoes landing on the membranes, and those flying within the apparatus, were recorded each minute for five minutes. After five minutes, any mosquitoes remaining on the membranes were removed with a metal wire, and the door of the floor of each chamber was closed. The top piece of the module was then placed into a freezer for 20 minutes. In the test designed to assess feeding, mosquitoes were removed from the frozen module, crushed on white paper towels, and examined for the presence of green dye to indicate that feeding had occurred. The proportions of mosquitoes feeding per trial were analyzed using a standard generalized linear model with a logit link. Landing and flying scores are repeated measures; five reading were obtained for groups of five mosquitoes. Thus, to maintain independence among the data, the five readings were summed, and then the sums divided by 25 (the maximum score in each category) to create proportions of mosquitoes landing and flying. The proportions were then transferred using the standard variance stabilizing transformation for proportions (sin^−1 √y, where y is the proportion), and analyzed using ANOVA (Analysis of Variables)
In Table 2, weight percent (wt %) refers to the weight of the deterring/repelling/inhibiting compound, or combination of compounds, in the composition used in the tests. […] The weight ratio of the compounds in the combination of compounds is given in parentheses in the “Compound(s)” column of Table 2.

mosquitoes = experiment: Spatial inhibition of mosquitoes, outdoor Mosquito Magnet Liberty Plus trap catch; conditions: for Percent Caught Relative To Control: control trap = 100% catch, lower = more inhibition; for percent mosquitoes caught relative to the control (relative catch): two grams of test compound on absorbent material in CO2 and r-octenol stream of trap, 2-5 days, FIG. 5
Method: Two grams of test compound was absorbed onto pieces of absorbent material. These pieces of absorbent material (fragrance release material from Rhopore Inc.) containing absorbed test compound were then placed in a stream of CO2 and r-octenol being released from an American Biophysics Mosquito Magnet Liberty Plus mosquito trap designed to attract mosquitoes. The test were rotated over a period of 2-5 days in such a manner that both control (trap without test compound) and test compound were tested an equal number of times in each trap employed. The number of mosquitoes caught in the traps with test compounds was compared to the number of mosquitoes caught in the trap with no test compound material present. […] Thus, a lowered percentage is indicative of the increasing ability of the test compounds to inhibit the ability of the mosquitoes sense the target. […] In Table 3, weight percent (wt %) refers to the weight of the deterring/repelling/inhibiting compound, or combination of compounds, in the composition used in the tests. In the “Percent Caught Relative to Control” column in Table 3, a lower percentage is indicative of the increasing ability of the test compounds to inhibit the ability of the mosquitoes sense the target. The weight ratio of the compounds in the combination of compounds is given in parentheses in the “Compound(s)” column of Table 3.

biting midges = experiment: Spatial inhibition of biting midges, outdoor trap catch; conditions: control trap = 100% catch, lower = more inhibition
Method: Two grams of test compound is absorbed onto pieces of absorbent material. These pieces of absorbent material (fragrance release material from Rhopore Inc.) containing absorbed test compound are then placed in a stream of CO2 and r-octenol being released from a biting midges biting midge trap designed to attract biting midges. The test are rotated over a period of 2-5 days in such a manner that both control (trap without test compound) and test compound are tested an equal number of times in each trap employed. The number of biting midges caught in the traps with test compounds is compared to the number of biting midges caught in the trap with no test compound material present. […] Thus, a lowered percentage is indicative of the increasing ability of the test compounds to inhibit the ability of the biting midges sense the target. In Table 6, weight percent (wt %) refers to the weight of the deterring/repelling/inhibiting compound, or combination of compounds, in the composition used in the tests. In the “Percent Caught Relative to Control” column in Table 6, a lower percentage is indicative of the increasing ability of the test compounds to inhibit the ability of the biting midges to sense the target. The weight ratio of the compounds in the combination of compounds is given in parentheses in the “Compound(s)” column of Table 6.

[2] = 87.5 wt % compound(s) in composition
[3] = 77.5 wt % compound(s) in composition
[4] = 80 wt % compound(s) in composition
[5] = 85 wt % compound(s) in composition
[6] = 92.5 wt % compound(s) in composition
[7] = 82.5 wt % compound(s) in composition
[8] = 90 wt % compound(s) in composition
[9] = 95 wt % compound(s) in composition

Compound: CC(C)=CCCC(C)CCO (stereo not drawn) [Citronellol]
- Flying Relative To Control [1, 2]: 1.55
- spatial inhibitor activity for mosquitoes (flying tests, FIGS. 2 and 4), in words [1]: particularly effective as spatial inhibitors for mosquitoes
- Percent Caught Relative To Control (mosquitoes; [2]): 12%
- Percent Caught Relative To Control (biting midges; [2]): 12%

Compound: CC(=O)OC/C=C(/C)CCC=C(C)C [Neryl acetate]
- Flying Relative To Control [1, 3]: 2.0
- spatial inhibitor activity for mosquitoes (flying tests, FIGS. 2 and 4), in words [1]: particularly effective as spatial inhibitors for mosquitoes
- Percent Caught Relative To Control (mosquitoes; [3]): 22%
- Percent Caught Relative To Control (biting midges; [3]): 20%

Compound: C=C[C@@](C)(O)CCC=C(C)C [d-Linalool, reference compound]
- Flying Relative To Control [1, 4]: 1.25
- Percent Caught Relative To Control (mosquitoes; [4]): 6%
- Percent Caught Relative To Control (biting midges; [4]): 6%

Compound: C=C(C)[C@@H]1CC=C(C)[C@H](O)C1 (relative stereo) [cis-Carveol]
- Flying Relative To Control [1, 5]: 1.35
- Percent Caught Relative To Control (mosquitoes; [5]): 23%
- Percent Caught Relative To Control (biting midges; [5]): 24%

Compound: CC(C)=CCCC(C)CC=O (stereo not drawn) [Citronellal]
- Flying Relative To Control [1, 6]: 1.9
- spatial inhibitor activity for mosquitoes (flying tests, FIGS. 2 and 4), in words [1]: particularly effective as spatial inhibitors for mosquitoes
- Percent Caught Relative To Control (mosquitoes; [6]): 11%
- Percent Caught Relative To Control (biting midges; [6]): 12%

Compound: Cc1ccc(C(C)(C)O)cc1
- Flying Relative To Control [1, 4]: 1.0
- spatial inhibitor activity for mosquitoes (flying tests, FIGS. 2 and 4), in words [1]: particularly effective as spatial inhibitors for mosquitoes
- Percent Caught Relative To Control (mosquitoes; [4]): 26%
- percent mosquitoes caught relative to the control (relative catch) (mosquitoes): about 34%
- Percent Caught Relative To Control (biting midges; [4]): 25%

Compound: C=C(C)C1CCC2(C)OC2C1 (single isomer, unassigned; (-)) [(−) Limonene oxide]
- Flying Relative To Control [1, 6]: 1.1
- Percent Caught Relative To Control (mosquitoes; [6]): 17%
- Percent Caught Relative To Control (biting midges; [6]): 16%

Compound: CC(=O)OC/C=C(\C)CCC=C(C)C [Geranyl acetate]
- Flying Relative To Control [1, 5]: 1.75
- spatial inhibitor activity for mosquitoes (flying tests, FIGS. 2 and 4), in words [1]: particularly effective as spatial inhibitors for mosquitoes
- Percent Caught Relative To Control (mosquitoes; [5]): 30%
- Percent Caught Relative To Control (biting midges; [5]): 29%

Compound: l-Carvone
- Flying Relative To Control [1, 7]: 1.75
- spatial inhibitor activity for mosquitoes (flying tests, FIGS. 2 and 4), in words [1]: particularly effective as spatial inhibitors for mosquitoes
- Percent Caught Relative To Control (mosquitoes; [7]): 10%
- Percent Caught Relative To Control (biting midges; [7]): 12%

Compound: C=C(C)[C@H]1CC=C(C)C(=O)C1 [d-Carvone]
- Flying Relative To Control [1, 3]: 1.95
- spatial inhibitor activity for mosquitoes (flying tests, FIGS. 2 and 4), in words [1]: particularly effective as spatial inhibitors for mosquitoes
- Percent Caught Relative To Control (mosquitoes; [3]): 12%
- Percent Caught Relative To Control (biting midges; [3]): 13%

Compound: CC1=CCC(C(C)(C)O)CC1 (stereo not drawn) [α-terpineol]
- Flying Relative To Control [1, 8]: 1.15
- spatial inhibitor activity for mosquitoes (flying tests, FIGS. 2 and 4), in words [1]: particularly effective as spatial inhibitors for mosquitoes
- Percent Caught Relative To Control (mosquitoes; [8]): 18%
- Percent Caught Relative To Control (biting midges; [8]): 16%

Compound: C=CC(C)(CCC=C(C)C)OC(C)=O (stereo not drawn) [Linaloyl acetate]
- Flying Relative To Control [1, 9]: 1.3
- spatial inhibitor activity for mosquitoes (flying tests, FIGS. 2 and 4), in words [1]: particularly effective as spatial inhibitors for mosquitoes
- Percent Caught Relative To Control (mosquitoes; [9]): 15%
- Percent Caught Relative To Control (biting midges; [9]): 16%

Compound: CC(C)=CCCC(C)=CC=O [Citral]
- Flying Relative To Control [1, 7]: 2.0
- spatial inhibitor activity for mosquitoes (flying tests, FIGS. 2 and 4), in words [1]: particularly effective as spatial inhibitors for mosquitoes
- Percent Caught Relative To Control (mosquitoes; [7]): 10%
- Percent Caught Relative To Control (biting midges; [7]): 12%

Compound: CC1=CCC(O)(C(C)C)CC1 (stereo not drawn) [Terpinen-4-ol]
- Flying Relative To Control [1, 8]: 1.7
- spatial inhibitor activity for mosquitoes (flying tests, FIGS. 2 and 4), in words [1]: particularly effective as spatial inhibitors for mosquitoes
- Percent Caught Relative To Control (mosquitoes; [8]): 20%
- percent mosquitoes caught relative to the control (relative catch) (mosquitoes): about 38%
- Percent Caught Relative To Control (biting midges; [8]): 21%

Compound: CC(=O)OCCC(C)CCC=C(C)C (stereo not drawn) [Citronellyl acetate]
- Flying Relative To Control [1, 4]: 1.5
- spatial inhibitor activity for mosquitoes (flying tests, FIGS. 2 and 4), in words [1]: particularly effective as spatial inhibitors for mosquitoes
- Percent Caught Relative To Control (mosquitoes; [4]): 26%
- Percent Caught Relative To Control (biting midges; [4]): 25%

Compound: CC(C)[C@@H]1CC[C@@H](C)C(=O)C1 [Tetrahydrocarvone]
- Flying Relative To Control [1, 9]: 1.65
- Percent Caught Relative To Control (mosquitoes; [9]): 25%
- percent mosquitoes caught relative to the control (relative catch) (mosquitoes): about 52%
- Percent Caught Relative To Control (biting midges; [9]): 25%

Compound: (+) Limonene oxide
- Flying Relative To Control [1, 2]: 0.90
- Percent Caught Relative To Control (mosquitoes; [2]): 18%
- Percent Caught Relative To Control (biting midges; [2]): 19%

Compound: C=C(C)[C@@H]1CC=C(C)[C@@H](O)C1 (relative stereo) [trans-Carveol]
- Flying Relative To Control [1, 3]: 1.55
- Percent Caught Relative To Control (mosquitoes; [3]): 22%
- Percent Caught Relative To Control (biting midges; [3]): 22%
